The text below walks through data of paper PMC3947597 (Bioorganic & medicinal chemistry, 2013).

The subject of the experiment is tubulin (colchicine site). The experiment in a line: Inhibition of [3H]colchicine binding to tubulin. Conditions: 1.0 µM tubulin, 5.0 µM [3H]colchicine, 10 min at 37 °C.

`COc1ccc(/C=C\c2cc(OC)c(OC)c(OC)c2)cc1O` [CA4, combretastatin A-4]: the “Inhibition of colchicine binding (%) ±SD, 1 µM” value (inhibitor 1 µM) amounted to 88±2%. Further, the “Inhibition of colchicine binding (%) ±SD, 5 µM” value (inhibitor 5 µM) was determined as 98±0.5%.
